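Grown in 96-well plates, cells were treated for 48 hours with each compound at five concentrations. Insufficient inhibition: endpoint recorded as highest concentration tested. GI50 is the concentration that inhibits growth by half.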 Calls of active or inactive are those of the source. No stated cut-off is given here; in the data, active = GI50 up to about 1.1 µM and inactive = higher.
Columns and labels:
Assay in all cases: inhibition of tumour cell growth, NCI panel, 48 h
[1] = test system: BT-549
[2] = test system: Hs-578T
[3] = test system: T47D
[4] = test system: SNB-78
[5] = test system: M19-MEL
[6] = test system: KM-20L2
[7] = test system: LXFL 529
[8] = test system: DLD-1

| Structure (SMILES) | GI50 [1] | GI50 [2] | GI50 [3] | GI50 [4] | GI50 [5] | GI50 [6] | GI50 [7] | GI50 [8] |
| --- | --- | --- | --- | --- | --- | --- | --- | --- |
| CCCc1[nH]c2ccccc2c1-c1c(CCC)[nH]c2ccccc12 | 13.9 µM (inactive) | 6.95 µM (inactive) |  |  |  |  |  |  |
| COc1ccc(-c2oc3cc(-c4cc5oc(-c6ccc(OC)cc6)c(-c6ccc(OC)cc6)c5cc4OC)c(OC)cc3c2-c2ccc(OC)cc2)cc1 | > 100 µM (inactive) | > 100 µM (inactive) |  |  |  |  |  |  |
| CC(CO)(CO)N1C(=O)C2C3C=CC(C3)C2C1=O (stereo not given) |  | > 100 µM (inactive) | > 100 µM (inactive) |  |  |  |  |  |
| CC12CCC3C(CCC4=CC(O)CCC43C=O)C1(O)CCC2c1ccc(=O)oc1 (stereo not given) |  |  |  | 0.0075 µM (active) | 0.0128 µM (active) | 0.00832 µM (active) |  |  |
| CC(C)=C[C@@H]1C[C@H](C)[C@H]2CC[C@H](C)[C@H]3C(=O)C(O)=C(C)C(=O)[C@]123 | > 100 µM (inactive) | > 100 µM (inactive) |  |  |  |  |  |  |
| CC(Cc1ccc2c(c1)OCO2)N(C)C(=O)C1=CCN(C)CC1 (stereo not given) | > 100 µM (inactive) | > 100 µM (inactive) | > 100 µM (inactive) |  |  |  |  |  |
| Cc1cc(O)nc(NNC(C#N)c2ccc(O)cc2)n1 (stereo not given) |  |  |  | 83.8 µM (inactive) | > 100 µM (inactive) | > 100 µM (inactive) | > 100 µM (inactive) | > 100 µM (inactive) |
| COc1ccc(/C=c2/s/c(=C(\C#N)c3nc4ccccc4[nH]3)n(-c3ccccc3)c2=O)cc1 | 21 µM (inactive) | 4.45 µM (inactive) | > 100 µM (inactive) |  | > 100 µM (inactive) | > 100 µM (inactive) | 2.32 µM (inactive) | > 100 µM (inactive) |
| CN(C)CCC1(C2=CCCC2)CC/C(=C\c2ccccc2)C1=O (stereo not given) |  |  |  | 19.7 µM (inactive) | 15.2 µM (inactive) | 13.1 µM (inactive) | 16.1 µM (inactive) | 17.3 µM (inactive) |
| COc1cccc(CCn2c(N)c(C#N)c3ccc([N+](=O)[O-])cc3c2=O)c1 | > 10 µM (inactive) | 39.9 µM (inactive) | > 46.5 µM (inactive) |  |  |  |  |  |
| C=C(Cl)C(Br)(CCl)CCC(Br)C(C)(C)Cl (stereo not given) | 2.52 µM (inactive) | 3.66 µM (inactive) | 1.15 µM (inactive) |  |  |  |  |  |
| O=C1[C@@H]2[C@@H](CN3CN(c4ccccc4)N=C(c4ccccc4)[C@@]23c2ccccc2)C(=O)N1c1ccccc1 | 3.61 µM (inactive) | 20.3 µM (inactive) | 2.58 µM (inactive) |  |  |  |  |  |
| COc1cc([C@@H]2c3cc4c(cc3[C@@H](Nc3ccc(Cl)cc3C(=O)c3ccccc3Cl)[C@H]3COC(=O)[C@H]23)OCO4)cc(OC)c1OC |  | 0.0241 µM (active) | > 100 µM (inactive) |  |  |  |  |  |
| O=C(NCCNCCO)N/N=C/c1cccc([N+](=O)[O-])c1 |  |  |  | > 100 µM (inactive) | > 100 µM (inactive) | > 100 µM (inactive) | > 100 µM (inactive) | > 100 µM (inactive) |
| O=S(=O)(N/C(=N\O)Nc1ccc(Cl)cc1)c1cc2ccccc2s1 | 17.1 µM (inactive) | 18.7 µM (inactive) | 21.9 µM (inactive) |  |  |  |  |  |
| CC1=CCC2CC1C(C(=O)c1c[nH]c3ccccc13)=NC2(C)C (stereo not given) | 40 µM (inactive) | 41.9 µM (inactive) | 29.4 µM (inactive) |  |  |  |  |  |
| C/C(CC(O)(C(F)(F)F)C(F)(F)F)=N/Nc1ccc([N+](=O)[O-])cc1[N+](=O)[O-] |  | 2.81 µM (inactive) | 1.08 µM (active) |  |  |  |  |  |
| COc1ccc2cc(CN3CCC(C4CCN(Cc5ccc6cc(OC)ccc6c5)CC4)CC3)ccc2c1 | > 10 µM (inactive) | 4.61 µM (inactive) | 1.93 µM (inactive) |  |  |  |  |  |
| CCNCCCCNCC |  |  |  | > 3750 µM (inactive) | > 2930 µM (inactive) | > 2090 µM (inactive) |  | > 3750 µM (inactive) |
| C[C@H]1COC(c2ccccn2)=N1 |  |  |  | > 100 µM (inactive) | > 100 µM (inactive) | > 100 µM (inactive) |  | > 100 µM (inactive) |
| CC1NC(=O)C2=C1C(N)=NC(=O)C2 (stereo not given) |  |  |  | > 100 µM (inactive) | > 100 µM (inactive) | > 100 µM (inactive) | > 100 µM (inactive) | > 100 µM (inactive) |
| Cc1cccc(NC(=S)N/N=C2\C(=O)Nc3ccccc32)c1 |  | > 100 µM (inactive) | > 100 µM (inactive) |  |  |  |  |  |
| CCOC(=O)/C=C1\Oc2ccccc2C1(C)O (stereo not given) |  |  |  | > 100 µM (inactive) | > 100 µM (inactive) | > 100 µM (inactive) | > 100 µM (inactive) | > 100 µM (inactive) |
| CC(=O)N(C)SCC(NC(=O)C(Cc1ccccc1)NC(=O)OCc1ccccc1)C(=O)NC(Cc1ccccc1)C(=O)NC(Cc1cn(C=O)c2ccccc12)C(=O)NC(CCCCNC(=O)OCc1ccccc1)C(=O)NC(C(=O)NC(CSN(C)C(C)=O)C(=O)NO)C(C)OCc1ccccc1 (stereo not given) | > 100 µM (inactive) | > 100 µM (inactive) | > 100 µM (inactive) |  |  |  |  |  |
| C=C(C)COc1ccc2c(c1)CCC1C2CCC2(C)C(=O)/C(=N/O)CC12 (stereo not given) | 6.41 µM (inactive) | 3.67 µM (inactive) | 2.2 µM (inactive) |  |  |  |  |  |
| Cc1cc(N(CCC#N)CCC#N)ccc1/N=N/c1cc(Cl)ccc1Cl |  |  |  | 6.22 µM (inactive) | 13.7 µM (inactive) |  | 1.7 µM (inactive) | 10.6 µM (inactive) |
| Cc1ccc(S(=O)(=O)N(c2ccccc2F)C2CCCCC2O)cc1 (stereo not given) | 14.6 µM (inactive) | 33 µM (inactive) |  |  |  |  |  |  |
